In PubChem BioAssay (NCI):
“And” between values parts separate entries of the source, which are not always exact repeats. Equal values may be shown once.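 Here, GI50 denotes the concentration required for 50% inhibition of growth. At the TGI there is no net growth.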

Key:
Assay in all cases: DTP human tumour cell line panel, 384-well format
786-0 renal = test system: 786-0 renal
A498 renal = test system: A498 renal
A549 NSCLC = test system: A549 NSCLC
ACHN renal = test system: ACHN renal
BT-549 breast = test system: BT-549 breast
CAKI-1 renal = test system: CAKI-1 renal
CCRF-CEM leukemia = test system: CCRF-CEM leukemia
COLO 205 colon = test system: COLO 205 colon
DU-145 prostate = test system: DU-145 prostate
EKVX NSCLC = test system: EKVX NSCLC
HCC-2998 colon = test system: HCC-2998 colon
HCT-15 colon = test system: HCT-15 colon
HL-60(TB) leukemia = test system: HL-60(TB) leukemia
HOP-62 NSCLC = test system: HOP-62 NSCLC
HOP-92 NSCLC = test system: HOP-92 NSCLC
HS 578T breast = test system: HS 578T breast
HT29 colon = test system: HT29 colon
IGROV1 ovarian = test system: IGROV1 ovarian
K-562 leukemia = test system: K-562 leukemia
KM12 colon = test system: KM12 colon
LOX IMVI melanoma = test system: LOX IMVI melanoma
M14 melanoma = test system: M14 melanoma
MALME-3M melanoma = test system: MALME-3M melanoma
MCF7 breast = test system: MCF7 breast
MDA-MB-231 breast = test system: MDA-MB-231 breast
MDA-MB-435 melanoma = test system: MDA-MB-435 melanoma
MDA-MB-468 breast = test system: MDA-MB-468 breast
MOLT-4 leukemia = test system: MOLT-4 leukemia
NCI-H226 lung = test system: NCI-H226 lung
NCI-H23 lung = test system: NCI-H23 lung
NCI-H322M lung = test system: NCI-H322M lung
NCI-H460 NSCLC = test system: NCI-H460 NSCLC
NCI-H522 lung = test system: NCI-H522 lung
NCI/ADR-RES ovarian = test system: NCI/ADR-RES ovarian
OVCAR-3 ovarian = test system: OVCAR-3 ovarian
OVCAR-4 ovarian = test system: OVCAR-4 ovarian
OVCAR-5 ovarian = test system: OVCAR-5 ovarian
OVCAR-8 ovarian = test system: OVCAR-8 ovarian
PC-3 prostate = test system: PC-3 prostate
RPMI-8226 leukemia = test system: RPMI-8226 leukemia
RXF 393 renal = test system: RXF 393 renal
SF-268 CNS = test system: SF-268 CNS
SF-295 CNS = test system: SF-295 CNS
SF-539 CNS = test system: SF-539 CNS
SK-MEL-28 melanoma = test system: SK-MEL-28 melanoma
SK-MEL-5 melanoma = test system: SK-MEL-5 melanoma
SK-OV-3 ovarian = test system: SK-OV-3 ovarian
SN12C renal = test system: SN12C renal
SNB-19 CNS = test system: SNB-19 CNS
SNB-75 CNS = test system: SNB-75 CNS
SR leukemia = test system: SR leukemia
SW-620 colon = test system: SW-620 colon
T-47D breast = test system: T-47D breast
TK-10 renal = test system: TK-10 renal
UACC-257 melanoma = test system: UACC-257 melanoma
UACC-62 melanoma = test system: UACC-62 melanoma
UO-31 renal = test system: UO-31 renal
HCT-116 colon = test system: HCT-116 colon
SK-MEL-2 melanoma = test system: SK-MEL-2 melanoma
U251 glioblastoma = test system: U251 glioblastoma

## CN1CCN(C(=O)COc2ccc(C34CC5CC(CC(C5)C3)C4)cc2)CC1
786-0 renal
  GI50: 1.74 µM
  TGI: 3.24 µM
A498 renal
  GI50: 1.62 µM
  TGI: 3.12 µM
A549 NSCLC
  GI50: 5.49 µM
  TGI: 17.8 µM
ACHN renal
  GI50: 7.11 µM
  TGI: 19.6 µM
BT-549 breast
  GI50: 3.48 µM
  TGI: 16 µM
CAKI-1 renal
  GI50: 2.22 µM
  TGI: 4.56 µM
CCRF-CEM leukemia
  GI50: 2.03 µM
  TGI: 4.43 µM
COLO 205 colon
  GI50: 1.79 µM
  TGI: 3.21 µM
DU-145 prostate
  GI50: 12.1 µM
  TGI: 24.6 µM
EKVX NSCLC
  GI50: 11.4 µM
  TGI: 23.6 µM
HCC-2998 colon
  GI50: 1.56 µM
  TGI: 3.11 µM
HCT-15 colon
  GI50: 1.84 µM
  TGI: 3.37 µM
HL-60(TB) leukemia
  GI50: 1.8 µM
  TGI: 3.21 µM
HOP-62 NSCLC
  GI50: 4.84 µM
  TGI: 16.5 µM
HOP-92 NSCLC
  GI50: 3.58 µM
  TGI: 15.7 µM
HS 578T breast
  GI50: 3.17 µM
  TGI: 10.6 µM
HT29 colon
  GI50: 1.72 µM
  TGI: 3.31 µM
IGROV1 ovarian
  GI50: 12.7 µM
  TGI: 25.3 µM
K-562 leukemia
  GI50: 1.64 µM
  TGI: 3.17 µM
KM12 colon
  GI50: 2.18 µM
  TGI: 4.77 µM
LOX IMVI melanoma
  GI50: 2.31 µM
  TGI: 5.31 µM
M14 melanoma
  GI50: 1.87 µM
  TGI: 3.41 µM
MALME-3M melanoma
  GI50: 1.7 µM
  TGI: 3.19 µM
MCF7 breast
  GI50: 2.08 µM
  TGI: 6.06 µM
MDA-MB-231 breast
  GI50: 6.09 µM
  TGI: 18.5 µM
MDA-MB-435 melanoma
  GI50: 3.94 µM
  TGI: 13.4 µM
MDA-MB-468 breast
  GI50: 1.93 µM
  TGI: 3.7 µM
MOLT-4 leukemia
  GI50: 1.79 µM
  TGI: 4.27 µM
NCI-H226 lung
  GI50: 6.3 µM
  TGI: 19.3 µM
NCI-H23 lung
  GI50: 4.5 µM
  TGI: 15.9 µM
NCI-H322M lung
  GI50: 3.81 µM
  TGI: 13.5 µM
NCI-H460 NSCLC
  GI50: 2.48 µM
  TGI: 5.79 µM
NCI-H522 lung
  GI50: 8.25 µM
  TGI: 20.5 µM
NCI/ADR-RES ovarian
  GI50: 7.51 µM
  TGI: 20.1 µM
OVCAR-3 ovarian
  GI50: 7.07 µM
  TGI: 19.7 µM
OVCAR-4 ovarian
  GI50: 8.56 µM
  TGI: 20.7 µM
OVCAR-5 ovarian
  GI50: 5.11 µM
  TGI: 16.6 µM
OVCAR-8 ovarian
  GI50: 10.3 µM
  TGI: 22.1 µM
PC-3 prostate
  GI50: 8.05 µM
  TGI: 20.6 µM
RPMI-8226 leukemia
  GI50: 1.7 µM
  TGI: 3.22 µM
RXF 393 renal
  GI50: 1.85 µM
  TGI: 4.12 µM
SF-268 CNS
  GI50: 4.74 µM
  TGI: 16.2 µM
SF-295 CNS
  GI50: 2.85 µM
  TGI: 8.18 µM
SF-539 CNS
  GI50: 3.98 µM
  TGI: 13.8 µM
SK-MEL-28 melanoma
  GI50: 1.74 µM
  TGI: 3.19 µM
SK-MEL-5 melanoma
  GI50: 1.85 µM
  TGI: 3.37 µM
SK-OV-3 ovarian
  GI50: 7.12 µM
  TGI: 19.8 µM
SN12C renal
  GI50: 11.8 µM
  TGI: 24.2 µM
SNB-19 CNS
  GI50: 10.5 µM
  TGI: 22.3 µM
SNB-75 CNS
  GI50: 11.9 µM
  TGI: 24.3 µM
SR leukemia
  GI50: 1.68 µM
  TGI: 3.08 µM
SW-620 colon
  GI50: 1.78 µM
  TGI: 3.31 µM
T-47D breast
  GI50: 2.66 µM
  TGI: 10.6 µM
TK-10 renal
  GI50: 9.41 µM
  TGI: 21.3 µM
UACC-257 melanoma
  GI50: 2.19 µM
  TGI: 4.32 µM
UACC-62 melanoma
  GI50: 1.81 µM
  TGI: 3.32 µM
UO-31 renal
  GI50: 11.3 µM
  TGI: 23.9 µM

## Nc1nc2[nH]cc(CCc3ccc(C(=O)N[C@@H](CCC(=O)O)C(=O)O)cc3)c2c(=O)[nH]1
786-0 renal
  GI50: 0.0335 µM and 0.0305 µM
  TGI: 50 µM and 8.17 µM
A498 renal
  TGI: 50 µM and > 100 µM
A549 NSCLC
  GI50: 0.355 µM and 0.294 µM
  TGI: 50 µM and > 100 µM
ACHN renal
  GI50: 0.18 µM and 0.0804 µM
  TGI: 50 µM and > 100 µM
BT-549 breast
  GI50: 0.194 µM and 0.0376 µM
CAKI-1 renal
  GI50: 0.193 µM and 0.179 µM
  TGI: 50 µM and > 100 µM
CCRF-CEM leukemia
  GI50: 0.0213 µM
  TGI: 0.0733 µM
COLO 205 colon
  GI50: 0.0379 µM and 0.0306 µM
DU-145 prostate
  GI50: 0.202 µM and 0.146 µM
  TGI: 50 µM and > 100 µM
EKVX NSCLC
  TGI: > 100 µM
HCC-2998 colon
  GI50: 0.0405 µM and 0.024 µM
  TGI: 50 µM and > 100 µM
HCT-116 colon
  GI50: 0.0387 µM and 0.0618 µM
  TGI: 50 µM and > 100 µM
HCT-15 colon
  GI50: 1.16 µM and 0.506 µM
  TGI: 50 µM and > 100 µM
HL-60(TB) leukemia
  GI50: 0.0148 µM and 0.0226 µM
  TGI: 0.0305 µM and 0.0575 µM
HOP-62 NSCLC
  GI50: 0.307 µM and 0.181 µM
  TGI: 50 µM and > 100 µM
HOP-92 NSCLC
  GI50: > 100 µM
  TGI: > 100 µM
HS 578T breast
  GI50: 0.254 µM and 0.276 µM
  TGI: 50 µM and > 100 µM
HT29 colon
  GI50: 0.257 µM and 0.089 µM
  TGI: 50 µM and > 100 µM
IGROV1 ovarian
  GI50: > 50 µM and 29.8 µM
  TGI: > 100 µM
K-562 leukemia
  GI50: 0.0118 µM
  TGI: 0.0248 µM
KM12 colon
  GI50: > 100 µM
  TGI: > 100 µM
LOX IMVI melanoma
  GI50: 0.0883 µM
  TGI: > 100 µM
M14 melanoma
  GI50: 0.105 µM and 0.0561 µM
MALME-3M melanoma
  GI50: 3.12 µM and 0.728 µM
  TGI: 50 µM and > 100 µM
MCF7 breast
  GI50: 0.0471 µM and 0.0339 µM
  TGI: 50 µM and > 100 µM
MDA-MB-231 breast
  GI50: 0.234 µM and 0.374 µM
  TGI: 1.12 µM and 1.63 µM
MDA-MB-435 melanoma
  TGI: 50 µM and > 100 µM
MDA-MB-468 breast
  GI50: 0.131 µM and 0.322 µM
MOLT-4 leukemia
  GI50: 0.0121 µM and 0.0192 µM
  TGI: 0.0236 µM and 0.0338 µM
NCI-H226 lung
  GI50: 0.054 µM and 0.0282 µM
NCI-H23 lung
  GI50: > 50 µM and 9.32 µM
  TGI: > 100 µM
NCI-H322M lung
  GI50: > 100 µM
  TGI: > 100 µM
NCI-H460 NSCLC
  GI50: 0.12 µM and 0.0792 µM
  TGI: 50 µM and > 100 µM
NCI-H522 lung
  GI50: 0.3 µM and 0.327 µM
NCI/ADR-RES ovarian
  GI50: 0.267 µM and 0.151 µM
  TGI: 50 µM and > 100 µM
OVCAR-3 ovarian
  GI50: 0.336 µM and 0.286 µM
  TGI: 50 µM and > 100 µM
OVCAR-4 ovarian
  GI50: > 50 µM and 6.98 µM
  TGI: > 100 µM
OVCAR-5 ovarian
  GI50: 1.31 µM and 4.2 µM
  TGI: 50 µM and > 100 µM
OVCAR-8 ovarian
  GI50: 0.0447 µM and 0.0501 µM
  TGI: 50 µM and > 100 µM
PC-3 prostate
  GI50: 0.0643 µM
  TGI: > 100 µM
RPMI-8226 leukemia
  GI50: 0.0172 µM and 0.026 µM
  TGI: 0.0402 µM and 0.0528 µM
RXF 393 renal
  GI50: 0.0248 µM
  TGI: 0.0583 µM
SF-268 CNS
  GI50: 0.0458 µM and 0.0334 µM
  TGI: 0.264 µM and 0.0962 µM
SF-295 CNS
  GI50: 0.0316 µM and 0.0756 µM
SF-539 CNS
  GI50: 0.0721 µM and 0.0419 µM
SK-MEL-2 melanoma
  GI50: > 50 µM
  TGI: > 50 µM
SK-MEL-28 melanoma
  GI50: 0.167 µM
  TGI: 5.61 µM
SK-MEL-5 melanoma
  TGI: > 100 µM
SK-OV-3 ovarian
  TGI: > 100 µM
SN12C renal
  GI50: 0.0458 µM and 0.0366 µM
SNB-19 CNS
  GI50: 1.03 µM and 3.66 µM
  TGI: 50 µM and > 100 µM
SNB-75 CNS
  GI50: 0.0782 µM and 0.121 µM
SR leukemia
  GI50: 0.0331 µM and 0.0388 µM
SW-620 colon
  GI50: 0.0472 µM and 0.0708 µM
  TGI: 50 µM and > 100 µM
T-47D breast
  GI50: > 100 µM
  TGI: > 100 µM
TK-10 renal
  GI50: 0.245 µM and 0.76 µM
  TGI: 50 µM and > 100 µM
U251 glioblastoma
  GI50: 0.243 µM and 0.249 µM
UACC-62 melanoma
  GI50: 0.35 µM and 0.445 µM
  TGI: 50 µM and > 100 µM
UO-31 renal
  GI50: 0.195 µM and 0.0334 µM
